The text below walks through data of patent US10632095B2 (Zoetis Services LLC, priority 2013, dated 2020).

Like-named read-outs stand apart in the source and are kept apart here.

In data set [1] the target is swine COX-2 (Sus scrofa, UniProt Q8SPR3). In words: Porcine alveolar macrophage COX inhibitor assay (PGE2 read-out). It counts as cell-based. As to conditions: for IC90: read-out: COX-2 IC90. The procedure: (§1) Alveolar macrophages were treated with a lipopolysaccharide (LPS), in the presence of varying amounts of inhibitors, to produce thromboxane B2 (TXB2) and/or prostaglandin E2 (PGE2). […] Each drug was tested in three different experiments on three different days (at a minimum).
Chain of swine COX-2 (Q8SPR3 entry or part of it): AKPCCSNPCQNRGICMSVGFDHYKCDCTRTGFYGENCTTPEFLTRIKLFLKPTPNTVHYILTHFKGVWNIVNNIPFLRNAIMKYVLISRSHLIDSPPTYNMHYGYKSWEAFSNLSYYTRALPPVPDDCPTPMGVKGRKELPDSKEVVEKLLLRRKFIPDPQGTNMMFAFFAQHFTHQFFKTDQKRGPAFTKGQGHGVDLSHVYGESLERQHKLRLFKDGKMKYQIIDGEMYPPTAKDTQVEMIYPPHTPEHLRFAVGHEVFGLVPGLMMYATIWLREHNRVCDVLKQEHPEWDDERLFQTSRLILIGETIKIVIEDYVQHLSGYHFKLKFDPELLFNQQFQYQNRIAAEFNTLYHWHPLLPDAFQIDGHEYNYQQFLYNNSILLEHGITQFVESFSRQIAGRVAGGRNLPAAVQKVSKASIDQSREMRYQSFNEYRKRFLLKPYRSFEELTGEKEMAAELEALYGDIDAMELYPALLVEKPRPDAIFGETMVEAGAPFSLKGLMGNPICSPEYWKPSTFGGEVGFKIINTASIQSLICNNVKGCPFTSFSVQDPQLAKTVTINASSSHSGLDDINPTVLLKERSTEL

Data set [2] addresses swine COX-1 (Sus scrofa, UniProt A0A287ANF9). Nature of the data set: Porcine alveolar macrophage COX inhibitor assay (TXB2 read-out). As to conditions: for IC90: read-out: COX-1 IC90. The data set is classed as cell-based. As to the method:
as §1

The target in data set [3] is T1, bovine COX-1 (Bos taurus, UniProt O62664).
T1 construct: using a bovine whole blood assay; from tissue; host or cells: heparinized bovine whole blood, protamine-treated to induce clotting
T1 sequence (O62664 25-600): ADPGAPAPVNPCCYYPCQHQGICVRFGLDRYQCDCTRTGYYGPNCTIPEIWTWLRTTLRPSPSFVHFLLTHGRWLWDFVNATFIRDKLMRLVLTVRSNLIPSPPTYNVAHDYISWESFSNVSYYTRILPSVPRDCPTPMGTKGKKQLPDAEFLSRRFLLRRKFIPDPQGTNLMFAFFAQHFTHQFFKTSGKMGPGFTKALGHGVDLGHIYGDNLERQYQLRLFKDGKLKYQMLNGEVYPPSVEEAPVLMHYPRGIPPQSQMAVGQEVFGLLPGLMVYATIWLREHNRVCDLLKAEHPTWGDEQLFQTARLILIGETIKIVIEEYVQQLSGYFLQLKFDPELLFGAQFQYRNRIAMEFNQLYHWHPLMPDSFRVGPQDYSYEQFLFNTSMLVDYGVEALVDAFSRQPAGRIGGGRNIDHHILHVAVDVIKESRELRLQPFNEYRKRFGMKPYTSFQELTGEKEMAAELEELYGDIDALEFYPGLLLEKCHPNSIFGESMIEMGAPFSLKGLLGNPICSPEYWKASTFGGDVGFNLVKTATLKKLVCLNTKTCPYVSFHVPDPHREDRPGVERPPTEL
In words: Bovine in vitro whole blood COX inhibitor assay (TXB2). It counts as cell-based. As to the method: (§2) Briefly, heparinized blood was collected for both assays. The COX-1 assay involved treatment of the blood with protamine; to reverse the anti-coagulation effects of heparin; thus, inducing clotting and production of Thromboxane B2 (TXB2). The COX-2 assay involved treatment of blood with LPS to produce PGE2. Both assays included the presence of varying amounts of inhibitors, to inhibit the TXB2 or PGE2. […] Percent inhibition was calculated from the raw data for each drug dose based on the mean of the TXB2 or PGE2 concentrations. Then the mean % inhibition curves (% inhibition versus drug concentration) were analyzed via non-linear regression to yield individual IC50 and IC90 values.

Data set [4] has as its system bradykinin. The note with it: Julou 1976; cited from earlier work.
The target in data set [5] is T2, bovine COX-2 (Bos taurus, UniProt O62698).
T2 construct: using a bovine whole blood assay; from tissue; host or cells: heparinized bovine whole blood, LPS-treated
T2 sequence (O62698 18-604): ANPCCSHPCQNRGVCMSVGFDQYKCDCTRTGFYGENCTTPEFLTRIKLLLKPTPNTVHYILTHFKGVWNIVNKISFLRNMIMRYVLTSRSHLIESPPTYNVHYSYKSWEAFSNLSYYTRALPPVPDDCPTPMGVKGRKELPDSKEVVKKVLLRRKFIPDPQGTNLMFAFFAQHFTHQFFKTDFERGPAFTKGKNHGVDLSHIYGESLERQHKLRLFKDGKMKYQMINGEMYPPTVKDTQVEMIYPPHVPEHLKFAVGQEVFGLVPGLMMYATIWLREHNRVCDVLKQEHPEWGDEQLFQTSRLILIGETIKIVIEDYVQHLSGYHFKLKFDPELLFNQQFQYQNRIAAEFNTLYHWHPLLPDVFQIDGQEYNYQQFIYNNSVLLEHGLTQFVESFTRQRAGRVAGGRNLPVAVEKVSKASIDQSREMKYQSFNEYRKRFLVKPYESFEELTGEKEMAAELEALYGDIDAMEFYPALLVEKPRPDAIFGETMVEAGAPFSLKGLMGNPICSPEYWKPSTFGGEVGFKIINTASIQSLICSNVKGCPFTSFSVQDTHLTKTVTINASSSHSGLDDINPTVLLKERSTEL
Nature of the data set: Bovine in vitro whole blood COX inhibitor assay (PGE2). The data set is classed as cell-based. As to the method:
as §2

Data set [6] has as its system LPS-induced lameness. In words: LPS-induced swine synovitis model. The data set is classed as in vivo. As to conditions: validation study, 2.2 mg/kg, IM.
Data set [7] is described as follows: Hydrolysis in swine plasma. It counts as in vitro ADME.
A short description of data set [8]: Hydrolysis in swine liver microsomes. The data set is classed as in vitro ADME.
Data set [9] has as its system swine influenza virus (SIV)-induced fever. The data set is classed as in vivo.
The mark [10] stands for this setting: read-out: COX-2 IC50, LPS-treated porcine alveolar macrophages, PGE2 by ELISA, 21-24 hours incubation.
[11] abbreviates: read-out: COX-1 IC50, LPS-treated porcine alveolar macrophages, TXB2 by ELISA, 21-24 hours incubation.
[12] abbreviates: LPS-treated porcine alveolar macrophages, PGE2 by ELISA, 21-24 hours incubation, read-out: COX-2 IC50.
The mark [13] stands for this setting: LPS-treated porcine alveolar macrophages, PGE2 by ELISA, 21-24 hours incubation.
[14] abbreviates: LPS-treated porcine alveolar macrophages, TXB2 by ELISA, 21-24 hours incubation, read-out: COX-1 IC50.
The mark [15] stands for this setting: LPS-treated porcine alveolar macrophages, TXB2 by ELISA, 21-24 hours incubation.

Chain of swine COX-1 (A0A287ANF9 25-600): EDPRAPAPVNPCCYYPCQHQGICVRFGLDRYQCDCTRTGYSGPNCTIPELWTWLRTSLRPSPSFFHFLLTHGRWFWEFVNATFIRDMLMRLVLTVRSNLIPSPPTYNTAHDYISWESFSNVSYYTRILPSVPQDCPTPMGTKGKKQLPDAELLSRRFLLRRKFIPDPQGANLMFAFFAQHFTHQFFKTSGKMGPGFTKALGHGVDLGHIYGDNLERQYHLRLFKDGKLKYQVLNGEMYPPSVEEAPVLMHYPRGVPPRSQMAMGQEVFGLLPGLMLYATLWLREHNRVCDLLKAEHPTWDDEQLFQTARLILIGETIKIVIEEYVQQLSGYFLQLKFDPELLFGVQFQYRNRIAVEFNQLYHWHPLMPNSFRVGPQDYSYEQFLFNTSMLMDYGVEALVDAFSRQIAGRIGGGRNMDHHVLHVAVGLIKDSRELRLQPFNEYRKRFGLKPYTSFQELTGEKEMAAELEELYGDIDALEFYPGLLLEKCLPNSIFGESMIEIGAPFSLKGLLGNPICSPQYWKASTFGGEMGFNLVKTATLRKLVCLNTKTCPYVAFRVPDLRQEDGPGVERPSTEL

As a reminder, the IC50 is the midpoint of a concentration-inhibition curve. By IC90 is commonly meant the concentration needed for an effect of 90%. Regarding `CC(C(=O)O)c1cccc(C(=O)c2ccccc2)c1` (racemic) [Ketoprofen, 2-(3-benzoylphenyl)-propionic acid], the IC50 is 6 nM in [1] (setting [10]); 6 to 7 nM in data set [1] (read-out: IC50 against swine ortholog of COX-2, one range given for COX-1 and COX-2); 7 nM in data set [2] (setting [11]); 6 to 7 nM in data set [2] (read-out: IC50 against swine ortholog of COX-1, one range given for COX-1 and COX-2); 30 nM in data set [3]; 220 nM in data set [5] (read-out: IC50 against bovine COX-2). In addition, the IC90 in [1] and in [2] was 80 nM each time. Also, the “functional bradykinin antagonist activity, effects greater than indomethacin” value in [4] was 8 times.

For `C[C@H](C(=O)O)c1cccc(C(=O)c2ccccc2)c1` (single isomer, unassigned) [Ketoprofen (S)-enantiomer], the values for the IC50 in data set [1] (setting [12]) and in [2] (setting [14]) were 1 nM and 2 nM, respectively. Also, the IC90 in data set [1] (setting [13]) came to 40 nM; in data set [2] (setting [15]), 60 nM.

With `CC(C(=O)O)c1ccc2c(c1)[nH]c1ccc(Cl)cc12` (stereo not shown) [Carprofen], the results for the IC50 in data set [1] (setting [10]) and in data set [2] (setting [14]) were 3170 nM and 5060 nM, respectively. The IC90 in data set [1] was found to be 39000 nM; in data set [2] it was 58400 nM.

With `Cc1c(Nc2ncccc2C(=O)O)cccc1C(F)(F)F` [Flunixin], the IC50 was 33 nM in data set [1] (setting [12]) and 66 nM in [2] (setting [11]). Further, the results for the IC90 in data set [1] (setting [13]) and in data set [2] (setting [15]) were 507 nM and 747 nM, respectively. Further, the “reduction of LPS-induced lameness” value in data set [6] is on record as “effective at reducing LPS-induced lameness”.

For `COC(=O)C(C)c1cccc(C(=O)c2ccccc2)c1` (stereo not shown) [Formula 1, methyl 2-(3-benzoylphenyl)propanoate], the IC50 amounted to 130 nM in data set [1] (setting [10]), 260 nM in data set [2] (setting [11]), 500 nM in data set [3] and 290 nM in [5]. For the same compound, the IC90 in data set [1] was determined as 840 nM; in [2], 1680 nM; in data set [3] (read-out: IC90 COX-1) it was 3.1 µM; in data set [5] (read-out: IC90 COX-2), 2290 nM. In addition, the “potency relative to Meloxicam” value in data set [1] (swine COX, Table 1) is given as “about 5 times”. Also, the “hydrolysis in swine plasma” value in data set [7] is listed as “moderately or slowly”. In data set [8], the “hydrolysis in swine liver microsomes” value is given as “hydrolyzed rapidly”. Further, the “anti-pyretic activity continues through (post-dose)” value in [9] (6 mg/kg IM in Miglyol 812) was at least 72 h. Also, the “activity compared with vehicle at t=35 hours (11 hours post-dose)” value in [9] (Formula 1 4, 5, 6 mg/kg IM, Banamine 2.2 mg/kg IM) is recorded as “remained active”. Further, in data set [9] (young gilts, in Miglyol 812, 4, 5, 6 mg/kg IM, 24 hours after SIV, all timepoints from 1 hour post-dose), the “fever reduction compared with vehicle” value is “significantly reduced fever”. Further, the “onset of anti-pyretic efficacy post-dose” value in data set [9] (young gilts, in Miglyol 812, 4, 5 and 6 mg/kg IM) was found to be 1 h.

For `CCOC(=O)C(C)c1cccc(C(=O)c2ccccc2)c1` (stereo not shown) [Formula 2, ethyl 2-(3-benzoylphenyl)propanoate], the “hydrolysis in swine plasma” value in data set [7] is listed as “moderately or slowly”. Also, the “hydrolysis in swine liver microsomes” value in data set [8] is listed as “hydrolyzed rapidly”.

In the case of `CC(C(=O)OCCNC(=O)c1cccnc1)c1cccc(C(=O)c2ccccc2)c1` (stereo not shown) [Formula 3, 2-(nicotinamido)ethyl 2-(3-benzoylphenyl)propanoate], the IC50 in [1] (setting [10]) amounted to 120 nM; in data set [2] (setting [11]), 150 nM. Besides, the IC90 in data set [1] was determined as 930 nM; in data set [2] it was 4860 nM. The “hydrolysis in swine plasma” value in data set [7] is “moderately or slowly”. For the same compound, the “hydrolysis in swine liver microsomes” value in [8] was “hydrolyzed rapidly”.

With `Cc1cnc(NC(=O)C2=C(O)c3ccccc3S(=O)(=O)N2C)s1` [Meloxicam], the IC50 in [1] (setting [10]) is 560 nM; in data set [2] (setting [14]), 1020 nM. The results for the IC90 in data set [1] and in [2] were 9000 nM and 49300 nM, respectively.
